From patent US7214495B2, “Screening method” (Takeda Pharmaceutical Company Limited, priority 2002, dated 2007) come the findings set out here.

Format in all cases: cell-based
The subject of experiment [1] is mouse insulinoma MIN6 cells. Briefly: Insulin secretion from MIN6 cells with free fatty acid-BSA mixture (RIA). As to conditions: 300 μM to 1000 μM; fatty acid-BSA 4:1; 11 mM glucose; 90 (or 60) minutes. As for the experimental part:
The MIN6 cells were cultured in DMEM (high glucose, Invitrogen) containing 15% FCS (Trace Scientific Ltd.), 55 μM 2-mercaptoethanol, 100 U/ml penicillin and 100 μg/ml streptomycin, unless otherwise indicated. MIN6 cells were plated in a 96-well plate in 10^5 cells/well, followed by incubation at 37° C. for 3 days in a CO2 incubator adjusted to a concentration of 5% CO2. The medium was replaced by RPMI1640 (glucose free, Invitrogen) containing 10% FCS (Trace Scientific Ltd.), 5.5 mM glucose, 100 U/ml penicillin and 100 μg/ml streptomycin, followed by incubation for further 24 hours. After the medium was removed by suction, a solution mixture of free fatty acid-bovine serum albumin (BSA) (in a molar ratio of 4:1) diluted with RPMI1640 (glucose free, Invitrogen) containing 10% FCS (Trace Scientific Ltd.), 11 mM glucose, 100 U/ml penicillin and 100 μg/ml streptomycin was added to the cells, followed by reacting in a CO2 incubator adjusted to a 5% CO2 concentration at 37° C. for 90 minutes (or 60 minutes). After the reaction, the 96-well plate was centrifuged at 1500 rpm for 5 minutes and the culture supernatant was then recovered. The amount of insulin secreted into the culture supernatant was determined by radioimmunoassay (RIA) using the rat insulin RIA system (Amersham Pharmacia).

The target in experiment [2] is T1, human GPR40 (Homo sapiens, UniProt O14842).
T1 construct: The resulting fragment (ca. 1 kb) was introduced into vector pAKKO-111, which was used for transfection of CHO cells; expressed in transfected cells
The experiment in a line: EC50 by FLIPR calcium assay in CHO cells stably expressing human GPR40. The note with it: intracellular calcium, FLIPR, stable CHO line; read-out: EC50 Human GPR40.

Experiment [3] addresses T2, Mouse GPR40 (Mus musculus, UniProt Q76JU9).
T2 construct: expressed in transfected cells
Briefly: EC50 by FLIPR calcium assay in CHO cells stably expressing mouse GPR40. The note with it: intracellular calcium, FLIPR, stable CHO line; read-out: EC50 Mouse GPR40.

T1 sequence (O14842 whole entry, the tested form may be a part): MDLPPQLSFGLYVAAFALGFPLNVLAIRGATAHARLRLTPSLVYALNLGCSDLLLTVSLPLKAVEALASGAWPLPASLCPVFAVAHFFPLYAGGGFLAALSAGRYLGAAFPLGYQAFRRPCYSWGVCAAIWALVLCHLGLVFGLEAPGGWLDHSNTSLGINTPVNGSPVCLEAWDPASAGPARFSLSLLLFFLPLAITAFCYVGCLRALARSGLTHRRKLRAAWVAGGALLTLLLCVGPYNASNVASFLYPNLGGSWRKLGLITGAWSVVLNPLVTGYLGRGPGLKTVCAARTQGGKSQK
T2 sequence (Q76JU9 whole entry): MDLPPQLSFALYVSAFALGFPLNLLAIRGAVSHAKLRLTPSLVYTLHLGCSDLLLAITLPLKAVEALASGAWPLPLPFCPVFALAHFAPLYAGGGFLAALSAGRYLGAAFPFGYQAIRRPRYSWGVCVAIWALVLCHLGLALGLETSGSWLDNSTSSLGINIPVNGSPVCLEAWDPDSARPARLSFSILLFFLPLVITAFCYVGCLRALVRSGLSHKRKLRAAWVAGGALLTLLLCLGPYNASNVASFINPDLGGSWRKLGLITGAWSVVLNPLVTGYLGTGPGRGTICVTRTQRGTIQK

Take `CCCCC/C=C\C/C=C\C/C=C\CCCCC(=O)O` [γ-Linolenic acid (C18:3), γ-Linolenic acid]: the “insulin secretion by MIN6 cells” value in experiment [1] was “promoted”. The EC50 – broadly, the concentration at which the effect is half-maximal – in experiment [2] is 4600 ± 1600 nM; in experiment [3], 5.2 ± 0.6 µM.

Take `CCCCCCCC/C=C\CCCCCCCC(=O)O` [Oleic acid (C18:1), Oleic acid]: the “insulin secretion by MIN6 cells” value in experiment [1] is on record as “promoted”. Further, the EC50 in experiment [2] stood at 2000 ± 300 nM; in experiment [3], 2.7 ± 0.5 µM.

With `CC/C=C\C/C=C\C/C=C\C/C=C\C/C=C\C/C=C\CCC(=O)O` [Docosahexaenoic acid (C22:6), 4Z,7Z,10Z,13Z,16Z,19Z-docosahexaenoic acid], the EC50 in experiment [2] was 1100 ± 300 nM; in experiment [3], 16 ± 4.7 µM.

`CCCCC/C=C\C/C=C\CCCCCCCC(=O)O` [Linoleic acid (C18:2), Linoleic acid]: the EC50 worked out at 1800 ± 100 nM in experiment [2] and 2.9 ± 0.3 µM in experiment [3].

On to `CCCCC/C=C\C/C=C\C/C=C\C/C=C\CCCC(=O)O` [Arachidonic acid (C20:4), Arachidonic acid], for which the EC50 came out at 2400 ± 600 nM in experiment [2] and 5.4 ± 0.8 µM in experiment [3].
